Data published in ChEMBL document CHEMBL4421722, “Inhibitors of protein prenyltransferases” (2013).

Assays:
Rattus norvegicus [1] = species: Rattus norvegicus; test: Inhibition of rat recombinant geranylgeranyltransferase type I expressed in Escherichia coli assessed as residual enzyme activity for geranylgeranylation of K-Ras4B at 50 uM incubated for 30 mins in presence of [3H]GGPP by scintillation counting assay relative to control
Rattus norvegicus [2] = species: Rattus norvegicus; test: Inhibition of rat recombinant geranylgeranyltransferase type I expressed in Escherichia coli assessed as residual enzyme activity for geranylgeranylation of RhoA at 50 uM incubated for 30 mins in presence of [3H]GGPP by scintillation counting assay relative to control

Row | Activity (Rattus norvegicus [1]) | Activity (Rattus norvegicus [2]) | Structure (SMILES)
1 | 6.5 to 9.2% | 2% | Cc1ccc(S(=O)(=O)N2C[C@@H](C(=O)O)[C@H](SCCc3ccccc3)C[C@H]2c2ccc3c(c2)OCO3)cc1
2 | 23.7 to 24.8% | 14.2% | Cc1ccc(S(=O)(=O)N2C[C@@H](C(=O)O)[C@H](SCc3ccc(Cl)cc3)C[C@H]2c2ccccc2)cc1
3 | 11.2 to 12.6% | 4.1% | Cc1ccccc1S(=O)(=O)N1C[C@@H](C(=O)O)[C@H](SCCc2ccccc2)C[C@H]1c1ccc(Cl)cc1
4 | 69.5% | 17.5% | Cc1ccc([C@@H]2C[C@@H](Sc3ccccc3)[C@H](C(=O)O)CN2S(=O)(=O)c2ccccc2C)cc1
5 | 15.2 to 16.5% | 5.8% | Cc1ccc(S(=O)(=O)N2C[C@@H](C(=O)O)[C@H](SCCc3ccccc3)C[C@H]2c2ccccc2)cc1
6 | 22.6 to 35.4% | 12.4% | Cc1ccc([C@@H]2C[C@@H](SCCc3ccccc3)[C@H](C(=O)O)CN2S(=O)(=O)c2ccc(C)cc2)cc1
7 | 10.2 to 13.8% | 5.3% | Cc1ccc([C@@H]2C[C@@H](SCCc3ccccc3)[C@H](C(=O)O)CN2S(=O)(=O)c2ccccc2C)cc1
8 | 24.6 to 37.2% | 14.5% | CCOc1ccc([C@@H]2C[C@@H](SCCc3ccccc3)[C@H](C(=O)O)CN2S(=O)(=O)c2ccc(C)cc2)cc1
9 | 15.2 to 19.5% | 6% | COc1ccc([C@@H]2C[C@@H](SCCc3ccccc3)[C@H](C(=O)O)CN2S(=O)(=O)c2ccccc2C)cc1
10 | 43.5 to 43.7% | 19.8% | CCCCS[C@@H]1C[C@@H](c2ccc(C)cc2)N(S(=O)(=O)c2ccccc2C)C[C@H]1C(=O)O
11 | 24.1 to 28.3% | 9.6% | COc1ccc([C@@H]2C[C@@H](SCCc3ccccc3)[C@H](C(=O)O)CN2S(=O)(=O)c2ccccc2)cc1
12 | 16.4 to 17.8% | 9.4% | C=CCS[C@@H]1C[C@@H](c2ccc(Cl)cc2)N(S(=O)(=O)c2ccccc2C)C[C@H]1C(=O)O
13 | 11.5 to 18.1% | 8.3% | Cc1ccc(S(=O)(=O)N2C[C@@H](C(=O)O)[C@H](SCc3ccccc3)C[C@H]2c2cccc(Cl)c2)cc1
14 | 15.1 to 20.8% | 5.9% | Cc1ccc(S(=O)(=O)N2C[C@@H](C(=O)O)[C@H](SCCc3ccccc3)C[C@H]2c2ccc(Cl)cc2)cc1
15 | 19.6 to 20.4% | 10.5% | Cc1ccc([C@@H]2C[C@@H](SCc3ccc(Cl)cc3)[C@H](C(=O)O)CN2S(=O)(=O)c2ccccc2C)cc1
16 | 75.5% | 7.8% | Cc1ccccc1S(=O)(=O)N1C[C@@H](C(=O)O)[C@H](Sc2ccccc2)C[C@H]1c1ccc(Cl)cc1
17 | 28.8 to 29.9% | 6.1% | COc1ccc([C@@H]2C[C@@H](SCCc3ccccc3)[C@H](C(=O)O)CN2S(=O)(=O)c2ccc(C)cc2)cc1
18 | 32 to 35.6% | 17.5% | Cc1ccc([C@@H]2C[C@@H](SCc3ccccc3)[C@H](C(=O)O)CN2S(=O)(=O)c2ccccc2C)cc1
19 | 40% | 4.6% | Cc1ccc(S(=O)(=O)N2C[C@@H](C(=O)O)[C@H](Sc3ccccc3)C[C@H]2c2ccc(Cl)cc2)cc1
20 | 22.7 to 27% | 9.5% | Cc1ccc([C@@H]2C[C@@H](SCCc3ccccc3)[C@H](C(=O)O)CN2S(=O)(=O)c2ccc(Cl)cc2)cc1
21 | 20.8 to 24.2% | 11.4% | COc1cccc([C@@H]2C[C@@H](SCCc3ccccc3)[C@H](C(=O)O)CN2S(=O)(=O)c2ccc(C)cc2)c1
22 | 3.4 to 6.8% | 3.1% | Cc1ccc(S(=O)(=O)N2C[C@@H](C(=O)O)[C@H](SCCc3ccccc3)C[C@H]2c2ccccc2F)cc1

Second part, the compound before the results:

Row | Structure (SMILES) | Activity (Rattus norvegicus [1]) | Activity (Rattus norvegicus [2])
23 | COc1ccc([C@H]2C(C(=O)O)=C[C@@H](C(C)(C)C)N2S(=O)(=O)c2ccc(C)cc2)cc1OC | 23.4% | 6.1%
24 | Cc1ccccc1S(=O)(=O)N1[C@@H](c2ccc(Cl)cc2)C(C(=O)O)=C[C@H]1CC1CCCC1 | 23.7% | 9.1%
25 | CCOc1ccc([C@@H]2C[C@@H](Sc3ccc(Cl)cc3)[C@H](C(=O)O)CN2S(=O)(=O)c2ccc(C)cc2)cc1 | 72.4% | 2.6%
26 | Cc1ccc(S(=O)(=O)N2[C@@H](c3cccc(Br)c3)C(C(=O)O)=CC[C@H]2c2cccc(Br)c2)cc1 | 9.4 to 15.2% | 3.7%
27 | COc1ccc([C@@H]2C[C@@H](Sc3ccc(Cl)cc3)[C@H](C(=O)O)CN2S(=O)(=O)c2ccccc2)cc1 | 88.8% | 13.4%
28 | CCCC[C@@H]1[C@@H](Sc2ccc(C)cc2)[C@@H](C(=O)O)[C@H](c2cccc(F)c2)N1S(=O)(=O)c1ccc(C)cc1 | 31.5% | 7.1%
29 | Cc1ccc(S(=O)(=O)N2C[C@@H](C(=O)O)[C@H](SCC(C)C)C[C@H]2c2cccc(Br)c2)cc1 | 11.4 to 18.8% | 1.3%
30 | Cc1ccc(S(=O)(=O)N2[C@@H](c3ccc(Br)cc3)C(C(=O)O)=CC[C@H]2c2ccc(Cl)c(Cl)c2)cc1 | 18.7 to 22.8% | 11.3%
31 | COc1ccc(S[C@H]2[C@@H](C(=O)O)[C@H](c3ccc(Cl)cc3)N(S(=O)(=O)c3ccc(Cl)cc3)[C@@H]2C(C)C)cc1 | 48.7% | 8%
32 | C=CCS[C@H]1[C@@H](C(=O)O)[C@H](c2ccc(C(C)C)cc2)N(S(=O)(=O)c2ccc(C)cc2)[C@@H]1CC1CCCC1 | 31.7% | 6.1%
33 | CC(C)CCS[C@H]1[C@@H](C(=O)O)[C@H](c2ccc(Cl)cc2)N(S(=O)(=O)c2ccccc2)[C@@H]1C(C)C | 28.1% | 5.9%
34 | COc1ccc([C@@H]2C[C@@H](SCc3ccc(Cl)cc3)[C@H](C(=O)O)CN2S(=O)(=O)c2ccc(Cl)cc2)cc1 | 20.8 to 27.1% | 8.5%
35 | CCCCCS[C@@H]1C[C@@H](c2cccc(Br)c2)N(S(=O)(=O)c2ccc(C)cc2)C[C@H]1C(=O)O | 28.5 to 85.1% | 10.8%
36 | O=C(O)C1=CC[C@@H](c2ccc(Cl)cc2)N(S(=O)(=O)c2ccc(Cl)cc2)[C@H]1c1cccc(Br)c1 | 8.6 to 17.3% | 5%
37 | CCCCS[C@@H]1C[C@@H](c2cccc(Cl)c2)N(S(=O)(=O)c2ccc(C)cc2)C[C@H]1C(=O)O | 8.5 to 16.7% | -1.2%
38 | Cc1ccccc1S(=O)(=O)N1[C@@H](c2cccc(Br)c2)C(C(=O)O)=CC[C@H]1c1ccc(Cl)cc1 | 10.6 to 19.2% | 8.8%
39 | CCOc1ccc([C@@H]2C[C@@H](SCc3ccc(Cl)cc3)[C@H](C(=O)O)CN2S(=O)(=O)c2ccc(C)cc2)cc1 | 3.1 to 3.7% | 2.6%
40 | C=CCS[C@H]1[C@@H](C(=O)O)[C@H](c2ccc(Cl)cc2)N(S(=O)(=O)c2ccccc2C)[C@@H]1CCC | 28.4% | 8.9%
41 | CCCCCC[C@@H]1[C@@H](SC2CCCC2)[C@@H](C(=O)O)[C@H](c2ccc(C#N)cc2)N1S(=O)(=O)c1ccc(C)cc1 | 20.1% | 7.4%
42 | Cc1ccc(S(=O)(=O)N2C[C@@H](C(=O)O)[C@H](SCc3ccc(Cl)cc3)C[C@H]2c2cccc(Br)c2)cc1 | 7.8 to 8% | 3.2%

Row | Structure (SMILES) | Activity (Rattus norvegicus [1]) | Activity (Rattus norvegicus [2])
43 | Cc1ccc(S(=O)(=O)N2[C@@H](c3cccc(F)c3)C(C(=O)O)=CC[C@H]2c2cccc(Br)c2)cc1 | 17 to 85.6% | 15%
44 | CCCCCC[C@@H]1[C@@H](Sc2ccc(C)cc2)[C@@H](C(=O)O)[C@H](c2ccc(Cl)cc2)N1S(=O)(=O)c1ccccc1 | 15% | 7.5%
45 | Cc1ccc([C@@H]2C[C@@H](Sc3ccc(Cl)cc3)[C@H](C(=O)O)CN2S(=O)(=O)c2ccc(Cl)cc2)cc1 | 42.3% | 3.3%
46 | C=CCS[C@H]1[C@@H](C(=O)O)[C@H](c2ccc(Cl)cc2)N(S(=O)(=O)c2ccccc2C)[C@@H]1CCCC | 23.1% | 8.4%
47 | CCCCS[C@H]1[C@@H](C(=O)O)[C@H](c2cccc(F)c2)N(S(=O)(=O)c2ccc(C)cc2)[C@@H]1CCCC | 23.5% | 7.1%
48 | Cc1ccc(S(=O)(=O)N2C[C@@H](C(=O)O)[C@H](Sc3ccc(Cl)cc3)C[C@H]2c2cccc(Cl)c2)cc1 | 111% | 6%
49 | C=CCS[C@H]1[C@@H](C(=O)O)[C@H](c2ccc(Cl)c(Cl)c2)N(S(=O)(=O)c2ccc(C)cc2)[C@@H]1CCCCCC | 15.1% | 6.8%
50 | Cc1ccc(S(=O)(=O)N2C[C@@H](C(=O)O)[C@H](SCc3ccc(Cl)cc3)C[C@H]2c2ccc(Cl)cc2)cc1 | 15.5 to 18.1% | 4.9%
51 | C=CCS[C@@H]1C[C@@H](c2cccc(Br)c2)N(S(=O)(=O)c2ccc(C)cc2)C[C@H]1C(=O)O | 29.2 to 83.6% | 13.6%
52 | Cc1ccc(S(=O)(=O)N2C[C@@H](C(=O)O)[C@H](Sc3ccccc3)C[C@H]2c2cccc(Cl)c2)cc1 | 87.5% | 8.3%
53 | Cc1ccc(S(=O)(=O)N2[C@@H](c3cccc(Br)c3)C(C(=O)O)=CC[C@H]2c2cccc(Cl)c2)cc1 | 11 to 23.1% | 7%
54 | Cc1ccc(S(=O)(=O)N2[C@@H](c3cccc(C)c3)C(C(=O)O)=CC[C@H]2c2ccc(Cl)c(Cl)c2)cc1 | 12.6 to 20.2% | 10.3%
55 | CCCCCS[C@H]1[C@@H](C(=O)O)[C@H](c2cccc(F)c2)N(S(=O)(=O)c2ccc(C)cc2)[C@@H]1CCCC | 23.5% | 7.1%
56 | Cc1ccc(S(=O)(=O)N2[C@@H](c3cccc(C)c3)C(C(=O)O)=CC[C@H]2c2cccc(Br)c2)cc1 | 16.1 to 31.9% | 14.3%
57 | C=CCS[C@H]1[C@@H](C(=O)O)[C@H](c2ccc(Cl)cc2)N(S(=O)(=O)c2ccc(C)cc2)[C@@H]1CC1CCCC1 | 25.2% | 7.7%
58 | Cc1ccc(S(=O)(=O)N2C[C@@H](C(=O)O)[C@H](SCC(C)C)C[C@H]2c2ccccc2)cc1 | 26 to 85.1% | 10.7%
59 | Cc1ccc(S(=O)(=O)N2C[C@@H](C(=O)O)[C@H](Sc3ccc(Cl)cc3)C[C@H]2c2ccc(Cl)cc2)cc1 | 52.1% | 4.9%
60 | C=CCS[C@H]1[C@@H](C(=O)O)[C@H](c2ccc(Cl)cc2)N(S(=O)(=O)c2ccccc2C)[C@@H]1CCCCCC | 24.9% | 6%
61 | CCC[C@@H]1[C@@H](SCCC(=O)OC(C)(C)C)[C@@H](C(=O)O)[C@H](c2cccc(F)c2)N1S(=O)(=O)c1ccc(C)cc1 | 20.2% | 7.8%
